One block for each compound: values may come before it.
What was measured:
[1] = Surface free energy of crystal by liquid penetration rate measurement (contact angle, Owens-Wendt-Rabel-Kaelble method); format: physicochemical; conditions: crystal powder; for γS^d, dispersion component of surface free energy / γS^p, polar component of surface free energy: solvents n-hexane, tetrachloromethane, benzene, 1-nitropropane, water; for γS, surface free energy: sum of dispersion and polar component
Procedure: The measurement of the surface free energy of the crystal may be performed in accordance with an ordinary method. For example, the contact angle with respect to the crystal is measured by means of the liquid penetration (permeation) rate measurement (machine type of apparatus: Processor Tensiometer K12, manufacturer: KRUSS GmbH) by using several solvents for which the surface free energy, the dispersion component of the surface free energy, and the polar component of the surface free energy are already known, and thus it is possible to perform the calculation therefrom by applying the model of Owens, Wendt, Rabel, and Kaelble. Preferred solvents for measurement in this method can be appropriately exemplified, for example, by n-hexane, […], benzene, nitrobenzene, 1-nitropropane, and water. As for the method as described above, it is possible to make reference, for example, to a method described in Japanese Patent Application Laid-open No. 2010-183064.
In relation to the surface free energy, the contact angle θ is calculated in accordance with the Washburn's equation from the penetration (permeation) rate of liquid into powder obtained by the liquid penetration (permeation) rate measurement (machine type of apparatus: Processor Tensiometer K12, manufacturer: KRUSS GmbH). The penetration (permeation) rate of the liquid in the chamber into the powder is measured by using a chamber tube shown in FIG. 4. […] Washburn's equation is represented by the following equation 1.
If this equation is converted into the weight of the solvent permeated into the powder per unit time, the following equation 2 is presented.
The contact angle θ is determined by measuring the penetration (permeation) rate by using a solvent for which the surface tension (γL), the density (ρ), and the viscosity (η) of the liquid are known. The polar component and the dispersion component of the surface free energy are calculated in accordance with the Owens-Wendt-Rabel-Kaelble method by using θ thus determined. That is, assuming that the surface free energy is composed of the non-polar dispersion component γ^d and the polar component γ^p, the following equations are presented. γS=γS^d+γS^p γL=γLd+γLp γSL=γS+γL−2√{square root over (yS^d·γL^d)}−2√{square root over (γS^p·γL^p)} Equation 3
If Young's equation, which holds among the surface tension of the liquid, the surface tension of the solid, and the solid-liquid interfacial tension, is substituted with the above, the following equation is obtained.
The contact angle θ is determined, and plotted by using several types of solvents having known γL, γL^d, γL^p, and thus it is possible to determine γS^p from the slope and γs^d from the intercept. n-Hexane, tetrachloromethane, benzene, 1-nitropropane, and water were used as the known solvents.
By utilizing the above, the surface free energy, the dispersion component of the surface free energy, the polar component of the surface free energy, and the ratio (%) of the polar component with respect to the surface free energy were calculated for samples (specimens) manufactured by the following methods.

[2] = Storage testing under severely stressed condition of crystals suspended in water, isomer formation by HPLC; format: physicochemical; conditions: light 6000 1×, 80° C., 6 hours, ratio to charging amount of luliconazole
Procedure: The storage testing under severely stressed condition was performed for Crystals 1 to 4. That is, each of the samples was suspended in water (infiltration condition or humidified condition), which was exposed to light at 6000 1× at 80° C. for 6 hours, followed by being collected by filtration and dried. After that, the ratio of the Z isomer of luliconazole with respect to the charging amount of luliconazole was measured and calculated. The measurement was performed by means of HPLC. The HPLC condition was as follows.
Column: CHIRALCEL OD-RH 4.6×150 mm, column temperature: 35° C., mobile phase: mixture solution of methanol/1.8% aqueous solution of potassium hexafluorophosphate (83:17, v/v), flow rate: 0.56 mL/min., detection: 295 nm.
As for the SE isomer, the storage testing under severely stressed testing was performed for the crystal in the same manner as the Z isomer. As a result, any difference was not observed in relation to the amount of formation depending on the difference in the crystal. That is, the tendency of the SE isomer was not observed for the crystal itself.

- γS^p/γS, ratio of polar component of surface free energy ([1]; listed as 1): 44%
- γS^d, dispersion component of surface free energy ([1]; listed as 1): 16.1 mJ/m^2
- γS^p, polar component of surface free energy ([1]; listed as 1): 12.7 mJ/m^2
- γS, surface free energy ([1]; listed as 1): 28.8 mJ/m^2
- Amount of formation of Z isomer (%) under condition of suspension in water and exposure to light ([2]; listed as 1): 0.11%
SMILES: N#C/C(=C1/SC[C@@H](c2ccc(Cl)cc2Cl)S1)n1ccnc1 [Crystal 1, Luliconazole]

- γS^p/γS, ratio of polar component of surface free energy ([1]; listed as 2): 29%
- γS^d, dispersion component of surface free energy ([1]; listed as 2): 19.5 mJ/m^2
- γS^p, polar component of surface free energy ([1]; listed as 2): 7.9 mJ/m^2
- γS, surface free energy ([1]; listed as 2): 27.4 mJ/m^2
- Amount of formation of Z isomer (%) under condition of suspension in water and exposure to light ([2]; listed as 2): 0.08%
SMILES: N#C/C(=C1/SC[C@@H](c2ccc(Cl)cc2Cl)S1)n1ccnc1 [Crystal 2, Luliconazole]

- γS^p/γS, ratio of polar component of surface free energy ([1]; listed as 3): 31%
- γS^d, dispersion component of surface free energy ([1]; listed as 3): 18.4 mJ/m^2
- γS^p, polar component of surface free energy ([1]; listed as 3): 8.2 mJ/m^2
- γS, surface free energy ([1]; listed as 3): 26.6 mJ/m^2
- Amount of formation of Z isomer (%) under condition of suspension in water and exposure to light ([2]; listed as 3): 0.07%
SMILES: N#C/C(=C1/SC[C@@H](c2ccc(Cl)cc2Cl)S1)n1ccnc1 [Crystal 3, Luliconazole]

- γS^p/γS, ratio of polar component of surface free energy ([1]; listed as 4): 20%
- γS^d, dispersion component of surface free energy ([1]; listed as 4): 20.3 mJ/m^2
- γS^p, polar component of surface free energy ([1]; listed as 4): 5.2 mJ/m^2
- γS, surface free energy ([1]; listed as 4): 25.5 mJ/m^2
- Amount of formation of Z isomer (%) under condition of suspension in water and exposure to light ([2]; listed as 4): 0.07%
SMILES: N#C/C(=C1/SC[C@@H](c2ccc(Cl)cc2Cl)S1)n1ccnc1 [Crystal 4, Luliconazole]

Reference: patent US9068958B1, “Use of surface free energy for differential evaluation of crystal, crystal evaluated on basis of surface free energy as index, and pharmaceutical composition prepared by containing the crystal” (POLA PHARMA INC., priority 2012, dated 2015)
